Data as given in patent publication US12371428B2 (Exelixis, Inc., priority 2019, dated 2025).

Key:
[1] = biological target: Human MER (residues 528-999) (Homo sapiens (Human), UniProt Q12866); experiment: Human Mer kinase assay, HTRF KinEase (Example C-2); assay type: biochemical; conditions: protocol of Example C-2 (other compounds)
Summary of the method: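 HTRF KinEase TK assay with MER 528-999 (1 ng/well) in enzymatic buffer plus 5 mM MgCl2 and 1 mM DTT, biotinylated peptide substrate and ATP at Km (40 μM), 3% DMSO final, 60 min at room temperature. Stopped with EDTA detection mix (SA-XL665, TK antibody-Eu3+), read at 665/620 nm after 60 min; IC50 from 10-point 4-parameter fit, normalized to DMSO and 1 μM reference.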

[2] = biological target: Human KDR (residues 790-1356) (Homo sapiens (Human), UniProt P35968); experiment: Human KDR kinase assay, HTRF KinEase (Example B-2); assay type: biochemical; conditions: protocol of Example B-2 (other compounds)
Human KDR (residues 790-1356), sequence (P35968 790-1356): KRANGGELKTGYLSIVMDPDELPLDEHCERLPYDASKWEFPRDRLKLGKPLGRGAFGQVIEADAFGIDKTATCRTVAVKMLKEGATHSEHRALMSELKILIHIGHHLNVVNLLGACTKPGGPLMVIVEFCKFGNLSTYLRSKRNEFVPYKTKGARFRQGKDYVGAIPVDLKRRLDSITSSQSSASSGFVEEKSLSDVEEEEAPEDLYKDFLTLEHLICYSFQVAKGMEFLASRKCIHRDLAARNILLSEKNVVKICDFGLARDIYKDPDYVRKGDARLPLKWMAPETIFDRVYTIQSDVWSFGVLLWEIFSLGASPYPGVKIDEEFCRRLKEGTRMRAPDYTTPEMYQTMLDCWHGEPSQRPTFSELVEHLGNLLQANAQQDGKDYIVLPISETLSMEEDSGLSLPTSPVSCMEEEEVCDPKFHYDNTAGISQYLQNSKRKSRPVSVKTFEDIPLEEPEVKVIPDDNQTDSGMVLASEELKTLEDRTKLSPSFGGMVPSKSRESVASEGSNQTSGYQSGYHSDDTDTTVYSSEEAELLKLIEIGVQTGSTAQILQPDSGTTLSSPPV
Summary of the method: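 Human KDR residues 790-1356 (0.1 ng/well) in buffer with 5 mM MgCl2, 1 mM MnCl2, 1 mM DTT, biotinylated peptide substrate, ATP at Km (4.0 μM), 3% DMSO, 10 compound concentrations; 40 min, room temperature. EDTA stop, streptavidin-XL665/Eu-TK antibody HTRF read 665/620 nm; 4-parameter IC50.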

[3] = biological target: Mer (phospho-Mer, MERTK-transfected 293A cells) (Homo sapiens (Human), UniProt Q12866); experiment: Mer autophosphorylation ELISA in transient transfected 293A cells (Example H); assay type: cell-based; conditions: cellular activity; Mer autophosphorylation ELISA in transient transfected 293A cells
Mer (phospho-Mer, MERTK-transfected 293A cells), sequence (Q12866 21-999): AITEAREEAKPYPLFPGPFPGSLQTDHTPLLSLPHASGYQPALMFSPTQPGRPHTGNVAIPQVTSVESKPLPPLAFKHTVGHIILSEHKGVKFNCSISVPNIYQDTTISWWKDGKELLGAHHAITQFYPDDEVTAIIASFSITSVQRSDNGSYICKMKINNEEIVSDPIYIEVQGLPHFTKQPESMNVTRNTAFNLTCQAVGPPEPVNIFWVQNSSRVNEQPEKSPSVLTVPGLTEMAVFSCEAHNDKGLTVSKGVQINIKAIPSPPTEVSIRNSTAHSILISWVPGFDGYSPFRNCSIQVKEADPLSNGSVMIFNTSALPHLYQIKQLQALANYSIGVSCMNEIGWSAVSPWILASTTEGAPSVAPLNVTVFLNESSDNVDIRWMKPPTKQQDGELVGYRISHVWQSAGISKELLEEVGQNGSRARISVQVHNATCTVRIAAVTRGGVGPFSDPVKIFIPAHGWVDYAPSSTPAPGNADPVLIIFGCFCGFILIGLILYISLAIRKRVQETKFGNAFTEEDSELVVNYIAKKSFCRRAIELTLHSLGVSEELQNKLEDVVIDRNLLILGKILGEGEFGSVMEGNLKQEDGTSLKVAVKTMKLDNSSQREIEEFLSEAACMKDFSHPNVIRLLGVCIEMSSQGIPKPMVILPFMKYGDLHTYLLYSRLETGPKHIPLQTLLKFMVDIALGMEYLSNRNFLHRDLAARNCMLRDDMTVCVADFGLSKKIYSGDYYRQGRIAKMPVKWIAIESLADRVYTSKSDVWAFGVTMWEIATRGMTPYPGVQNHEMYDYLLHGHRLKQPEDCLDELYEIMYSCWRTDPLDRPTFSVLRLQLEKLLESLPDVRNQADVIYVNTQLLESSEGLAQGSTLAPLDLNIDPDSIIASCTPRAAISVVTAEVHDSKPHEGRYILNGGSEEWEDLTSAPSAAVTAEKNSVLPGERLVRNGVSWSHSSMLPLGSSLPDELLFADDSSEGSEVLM
Summary of the method: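 Human MERTK transiently transfected into 293A cells; compounds as 8-point dose curve in serum-free medium (0.3% DMSO final), 1 h. Lysates assayed by phospho-Mer sandwich ELISA against phospho-Mer standard; DMSO = 100%, reference inhibitor = 0% activity; IC50 from 4-parameter logistic fit.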

[4] = biological target: AXL (phospho-AXL, Gas6-stimulated A-172 glioblastoma cells) (Homo sapiens (Human), UniProt P30530); experiment: AXL autophosphorylation ELISA in A-172 cells (Example E); assay type: cell-based; conditions: cellular activity; AXL autophosphorylation ELISA in A-172 cells; read-out: Axl IC50
AXL (phospho-AXL, Gas6-stimulated A-172 glioblastoma cells), sequence (P30530 26-894): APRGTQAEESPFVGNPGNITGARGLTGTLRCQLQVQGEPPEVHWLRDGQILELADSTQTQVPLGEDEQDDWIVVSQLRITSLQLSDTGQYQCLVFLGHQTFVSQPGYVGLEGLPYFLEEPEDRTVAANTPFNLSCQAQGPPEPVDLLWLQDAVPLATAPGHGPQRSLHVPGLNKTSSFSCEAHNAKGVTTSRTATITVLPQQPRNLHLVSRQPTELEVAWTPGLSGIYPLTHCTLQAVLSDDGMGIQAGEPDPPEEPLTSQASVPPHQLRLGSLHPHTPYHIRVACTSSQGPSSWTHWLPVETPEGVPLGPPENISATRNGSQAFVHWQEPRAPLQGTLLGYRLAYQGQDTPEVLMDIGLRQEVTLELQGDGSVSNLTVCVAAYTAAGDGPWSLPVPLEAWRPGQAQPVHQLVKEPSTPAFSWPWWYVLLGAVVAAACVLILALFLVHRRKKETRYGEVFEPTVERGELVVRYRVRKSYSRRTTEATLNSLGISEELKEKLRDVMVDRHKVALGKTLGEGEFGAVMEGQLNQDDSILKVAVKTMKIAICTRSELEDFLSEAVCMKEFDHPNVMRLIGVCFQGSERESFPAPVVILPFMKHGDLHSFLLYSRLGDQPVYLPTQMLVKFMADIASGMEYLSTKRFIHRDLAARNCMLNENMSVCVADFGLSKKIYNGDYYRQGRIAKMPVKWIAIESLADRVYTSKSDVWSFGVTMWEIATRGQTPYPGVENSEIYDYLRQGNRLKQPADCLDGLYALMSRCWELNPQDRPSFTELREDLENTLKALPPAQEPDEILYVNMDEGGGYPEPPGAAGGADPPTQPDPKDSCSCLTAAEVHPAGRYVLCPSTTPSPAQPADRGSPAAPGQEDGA
Summary of the method: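 Phospho-AXL in lysates was quantified by ELISA, normalised to DMSO (100%) and reference inhibitor (0%) controls. IC50 by 4-parameter logistic fit.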

Human MER (residues 528-999), sequence (Q12866 528-999): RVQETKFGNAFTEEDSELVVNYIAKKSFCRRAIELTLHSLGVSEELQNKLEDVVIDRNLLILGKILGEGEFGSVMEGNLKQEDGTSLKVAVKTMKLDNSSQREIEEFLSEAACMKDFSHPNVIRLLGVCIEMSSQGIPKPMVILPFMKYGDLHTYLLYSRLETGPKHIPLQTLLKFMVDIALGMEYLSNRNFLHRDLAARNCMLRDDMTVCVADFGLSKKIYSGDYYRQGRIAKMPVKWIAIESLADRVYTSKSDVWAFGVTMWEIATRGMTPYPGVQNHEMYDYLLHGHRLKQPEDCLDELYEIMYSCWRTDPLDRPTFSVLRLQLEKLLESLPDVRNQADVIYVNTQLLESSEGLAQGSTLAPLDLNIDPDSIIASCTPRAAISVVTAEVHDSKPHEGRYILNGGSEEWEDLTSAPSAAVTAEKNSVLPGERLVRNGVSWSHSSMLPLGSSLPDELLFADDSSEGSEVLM

SMILES: COc1cc2nccc(Oc3ccc(NC(=O)c4nn(C(C)C)c(C)c(-c5ccc(F)cc5)c4=O)cc3F)c2nc1OC [Compound 364, N-[4-[(6,7-dimethoxy-1,5-naphthyridin-4-yl)oxy]-3-fluorophenyl]-5-(4-fluorophenyl)-6-methyl-4-oxo-1-propan-2-ylpyridazine-3-carboxamide]
- IC50 [1]: < 100 nM
- IC50 [2]: < 100 nM
- IC50 [3]: < 100 nM

SMILES: C=C(C)c1cc(C(=O)Nc2ccc(Oc3ccnc4cc(OC)c(OC)nc34)c(F)c2)c(=O)n(-c2ccc(F)cc2)c1C [Compound 367, N-[4-[(6,7-dimethoxy-1,5-naphthyridin-4-yl)oxy]-3-fluorophenyl]-1-(4-fluorophenyl)-6-methyl-2-oxo-5-prop-1-en-2-ylpyridine-3-carboxamide]
- IC50 [1]: < 100 nM
- IC50 [2]: > 300 nM
- IC50 [3]: < 100 nM

SMILES: COc1cc2nccc(Oc3ccc(NC(=O)c4cc(C(C)C)c(C)n(-c5ccc(F)cc5)c4=O)cc3F)c2nc1OC [Compound 368, N-[4-[(6,7-dimethoxy-1,5-naphthyridin-4-yl)oxy]-3-fluorophenyl]-1-(4-fluorophenyl)-6-methyl-2-oxo-5-propan-2-ylpyridine-3-carboxamide]
- IC50 [1]: < 100 nM
- IC50 [2]: 100 to 300 nM
- IC50 [3]: < 100 nM

SMILES: CCOc1c(C(=O)Nc2ccc(Oc3ccnc4cc(OC)c(OC)nc34)c(F)c2)c(=O)c(-c2ccc(F)cc2)c(C)n1C [Compound 369, N-[4-[(6,7-dimethoxy-1,5-naphthyridin-4-yl)oxy]-3-fluorophenyl]-2-ethoxy-5-(4-fluorophenyl)-1,6-dimethyl-4-oxopyridine-3-carboxamide]
- IC50 [1]: < 100 nM
- IC50 [2]: 100 to 300 nM
- IC50 [3]: < 100 nM

SMILES: COc1cc2nccc(Oc3ccc(NC(=O)c4cc(C)c(C)n(-c5ccc(F)cc5)c4=O)cc3F)c2nc1OC [Compound 370, N-[4-[(6,7-dimethoxy-1,5-naphthyridin-4-yl)oxy]-3-fluorophenyl]-1-(4-fluorophenyl)-5,6-dimethyl-2-oxopyridine-3-carboxamide]
- IC50 [1]: < 100 nM
- IC50 [2]: < 100 nM
- IC50 [3]: < 100 nM

SMILES: Cc1ncc(C(=O)Nc2ccc(Oc3ccnc4cc(-c5cnn(C(F)F)c5)ccc34)cc2)c(O)c1-c1ccc(F)cc1 [Compound 377, N-[4-[7-[1-(difluoromethyl)pyrazol-4-yl]quinolin-4-yl]oxyphenyl]-5-(4-fluorophenyl)-4-hydroxy-6-methylpyridine-3-carboxamide]
- IC50 [1]: < 100 nM
- IC50 [2]: < 100 nM
- IC50 [3]: < 100 nM

SMILES: COc1ccc2nccc(Oc3ccc(NC(=O)c4ncc(C)n(-c5ccc(F)cc5)c4=O)cc3)c2n1 [Compound 378, 4-(4-fluorophenyl)-N-[4-[(6-methoxy-1,5-naphthyridin-4-yl)oxy]phenyl]-5-methyl-3-oxopyrazine-2-carboxamide]
- IC50 [1]: < 100 nM
- IC50 [2]: > 300 nM
- IC50 [3]: < 100 nM

SMILES: COc1cc2nccc(Oc3ccc(NC(=O)c4nccn(-c5ccc(F)cc5)c4=O)cc3F)c2nc1OC [Compound 379, N-[4-[(6,7-dimethoxy-1,5-naphthyridin-4-yl)oxy]-3-fluorophenyl]-4-(4-fluorophenyl)-3-oxopyrazine-2-carboxamide]
- IC50 [1]: < 100 nM
- IC50 [2]: < 100 nM
- IC50 [3]: < 100 nM

SMILES: COc1ccc2nccc(Oc3ccc(NC(=O)c4nccn(-c5ccc(F)cc5)c4=O)cc3F)c2n1 [Compound 380, N-[3-fluoro-4-[(6-methoxy-1,5-naphthyridin-4-yl)oxy]phenyl]-4-(4-fluorophenyl)-3-oxopyrazine-2-carboxamide]
- IC50 [1]: < 100 nM
- IC50 [2]: > 300 nM
- IC50 [3]: < 100 nM

SMILES: COc1cnc2c(Oc3ccc(NC(=O)c4nccn(-c5ccc(F)cc5)c4=O)cc3F)ccnc2c1 [Compound 381, N-[3-fluoro-4-[(7-methoxy-1,5-naphthyridin-4-yl)oxy]phenyl]-4-(4-fluorophenyl)-3-oxopyrazine-2-carboxamide]
- IC50 [1]: < 100 nM
- IC50 [2]: > 300 nM
- IC50 [3]: < 100 nM

SMILES: COc1cnc2c(Oc3ccc(NC(=O)c4nccn(-c5ccc(F)cc5)c4=O)cc3)ccnc2c1 [Compound 382, 4-(4-fluorophenyl)-N-[4-[(7-methoxy-1,5-naphthyridin-4-yl)oxy]phenyl]-3-oxopyrazine-2-carboxamide]
- IC50 [1]: < 100 nM
- IC50 [2]: > 300 nM
- IC50 [3]: < 100 nM

SMILES: COc1ccc2nccc(Oc3ccc(NC(=O)c4nccn(-c5ccc(F)cc5)c4=O)cc3)c2n1 [Compound 383, 4-(4-fluorophenyl)-N-[4-[(6-methoxy-1,5-naphthyridin-4-yl)oxy]phenyl]-3-oxopyrazine-2-carboxamide]
- IC50 [1]: < 100 nM
- IC50 [2]: > 300 nM
- IC50 [3]: < 100 nM

SMILES: COc1cc2nccc(Oc3ccc(NC(=O)c4nccn(-c5ccc(F)cc5)c4=O)cc3)c2nc1OC [Compound 384, N-[4-[(6,7-dimethoxy-1,5-naphthyridin-4-yl)oxy]phenyl]-4-(4-fluorophenyl)-3-oxopyrazine-2-carboxamide]
- IC50 [1]: < 100 nM
- IC50 [2]: 100 to 300 nM
- IC50 [3]: < 100 nM

SMILES: COc1cc2nccc(Oc3ccc(NC(=O)c4ccnn(-c5ccc(F)cc5)c4=O)cc3F)c2nc1OC [Compound 386, N-[4-[(6,7-dimethoxy-1,5-naphthyridin-4-yl)oxy]-3-fluorophenyl]-2-(4-fluorophenyl)-3-oxopyridazine-4-carboxamide]
- IC50 [1]: < 100 nM
- IC50 [2]: < 100 nM
- IC50 [3]: < 100 nM

SMILES: COc1cc2nccc(Oc3ccc(NC(=O)c4cn(C)c(C)c(-c5ccc(F)cc5)c4=O)cc3Cl)c2nc1OC [Compound 388, N-[3-chloro-4-[(6,7-dimethoxy-1,5-naphthyridin-4-yl)oxy]phenyl]-5-(4-fluorophenyl)-1,6-dimethyl-4-oxopyridine-3-carboxamide]
- IC50 [1]: < 100 nM
- IC50 [2]: < 100 nM
- IC50 [3]: < 100 nM

SMILES: COc1cc2nccc(Oc3ccc(NC(=O)c4cn(C)c(C)c(-c5ccc(F)cc5)c4=O)c(F)c3)c2nc1OC [Compound 389, N-[4-[(6,7-dimethoxy-1,5-naphthyridin-4-yl)oxy]-2-fluorophenyl]-5-(4-fluorophenyl)-1,6-dimethyl-4-oxopyridine-3-carboxamide]
- IC50 [1]: < 100 nM
- IC50 [2]: > 300 nM
- IC50 [3]: < 100 nM

SMILES: COc1cc2nccc(Oc3ccc(NC(=O)c4cn(C)c(C)c(-c5ccc(F)cc5)c4=O)c(F)c3F)c2nc1OC [Compound 390, N-[4-[(6,7-dimethoxy-1,5-naphthyridin-4-yl)oxy]-2,3-difluorophenyl]-5-(4-fluorophenyl)-1,6-dimethyl-4-oxopyridine-3-carboxamide]
- IC50 [1]: < 100 nM
- IC50 [2]: > 300 nM
- IC50 [3]: < 100 nM

SMILES: COc1cc2nccc(Oc3cc(F)c(NC(=O)c4cn(C)c(C)c(-c5ccc(F)cc5)c4=O)cc3F)c2nc1OC [Compound 391, N-[4-[(6,7-dimethoxy-1,5-naphthyridin-4-yl)oxy]-2,5-difluorophenyl]-5-(4-fluorophenyl)-1,6-dimethyl-4-oxopyridine-3-carboxamide]
- IC50 [1]: < 100 nM
- IC50 [2]: 100 to 300 nM
- IC50 [3]: < 100 nM

SMILES: COc1cc2nccc(Oc3c(F)cc(NC(=O)c4cn(C)c(C)c(-c5ccc(F)cc5)c4=O)cc3F)c2nc1OC [Compound 392, N-[4-[(6,7-dimethoxy-1,5-naphthyridin-4-yl)oxy]-3,5-difluorophenyl]-5-(4-fluorophenyl)-1,6-dimethyl-4-oxopyridine-3-carboxamide]
- IC50 [1]: < 100 nM
- IC50 [2]: > 300 nM
- IC50 [3]: < 100 nM

SMILES: COc1cc2nccc(Oc3ccc(NC(=O)c4ncc(C)n(-c5ccc(F)cc5C)c4=O)cc3F)c2nc1OC [Compound 393, N-[4-[(6,7-dimethoxy-1,5-naphthyridin-4-yl)oxy]-3-fluorophenyl]-4-(4-fluoro-2-methylphenyl)-5-methyl-3-oxopyrazine-2-carboxamide]
- IC50 [1]: < 100 nM
- IC50 [2]: < 100 nM
- IC50 [3]: < 100 nM

SMILES: COc1ccc2nccc(Oc3ccc(NC(=O)c4ncc(C)n(-c5ccc(F)cc5C)c4=O)cc3F)c2n1 [Compound 394, N-[3-fluoro-4-[(6-methoxy-1,5-naphthyridin-4-yl)oxy]phenyl]-4-(4-fluoro-2-methylphenyl)-5-methyl-3-oxopyrazine-2-carboxamide]
- IC50 [1]: < 100 nM
- IC50 [2]: > 300 nM
- IC50 [3]: < 100 nM

SMILES: COc1cc2nccc(Oc3ncc(NC(=O)c4cn(C5CC5)cc(-c5ccc(F)cc5)c4=O)cc3F)c2cc1OC [Compound 399, 1-cyclopropyl-N-[6-(6,7-dimethoxyquinolin-4-yl)oxy-5-fluoropyridin-3-yl]-5-(4-fluorophenyl)-4-oxopyridine-3-carboxamide]
- IC50 [1]: < 100 nM
- IC50 [2]: > 300 nM
- IC50 [3]: < 100 nM
- IC50 [4]: < 100 nM

SMILES: COc1cc2nccc(Oc3ncc(NC(=O)c4cn(C5CN(C)C5)cc(-c5ccc(F)cc5)c4=O)cc3F)c2cc1OC [Compound 400, N-[6-(6,7-dimethoxyquinolin-4-yl)oxy-5-fluoropyridin-3-yl]-5-(4-fluorophenyl)-1-(1-methylazetidin-3-yl)-4-oxopyridine-3-carboxamide]
- IC50 [1]: < 100 nM
- IC50 [2]: > 300 nM
- IC50 [3]: < 100 nM
